From ChEMBL document CHEMBL1201862, “PubChem BioAssay data set” (2004)
The source made the active and inactive calls.

Tests used:
Assay type in all cases: functional
[1] = biological target: 5'-AMP-activated protein kinase catalytic subunit alpha-1 (Homo sapiens, UniProt Q13131)
[2] = biological target: Serine/threonine-protein kinase pim-1 (Homo sapiens, UniProt P11309)
[3] = biological target: T1, Serine/threonine-protein kinase TAO1 (Homo sapiens, UniProt Q7L7X3)
T1 sequence (Q7L7X3 whole entry): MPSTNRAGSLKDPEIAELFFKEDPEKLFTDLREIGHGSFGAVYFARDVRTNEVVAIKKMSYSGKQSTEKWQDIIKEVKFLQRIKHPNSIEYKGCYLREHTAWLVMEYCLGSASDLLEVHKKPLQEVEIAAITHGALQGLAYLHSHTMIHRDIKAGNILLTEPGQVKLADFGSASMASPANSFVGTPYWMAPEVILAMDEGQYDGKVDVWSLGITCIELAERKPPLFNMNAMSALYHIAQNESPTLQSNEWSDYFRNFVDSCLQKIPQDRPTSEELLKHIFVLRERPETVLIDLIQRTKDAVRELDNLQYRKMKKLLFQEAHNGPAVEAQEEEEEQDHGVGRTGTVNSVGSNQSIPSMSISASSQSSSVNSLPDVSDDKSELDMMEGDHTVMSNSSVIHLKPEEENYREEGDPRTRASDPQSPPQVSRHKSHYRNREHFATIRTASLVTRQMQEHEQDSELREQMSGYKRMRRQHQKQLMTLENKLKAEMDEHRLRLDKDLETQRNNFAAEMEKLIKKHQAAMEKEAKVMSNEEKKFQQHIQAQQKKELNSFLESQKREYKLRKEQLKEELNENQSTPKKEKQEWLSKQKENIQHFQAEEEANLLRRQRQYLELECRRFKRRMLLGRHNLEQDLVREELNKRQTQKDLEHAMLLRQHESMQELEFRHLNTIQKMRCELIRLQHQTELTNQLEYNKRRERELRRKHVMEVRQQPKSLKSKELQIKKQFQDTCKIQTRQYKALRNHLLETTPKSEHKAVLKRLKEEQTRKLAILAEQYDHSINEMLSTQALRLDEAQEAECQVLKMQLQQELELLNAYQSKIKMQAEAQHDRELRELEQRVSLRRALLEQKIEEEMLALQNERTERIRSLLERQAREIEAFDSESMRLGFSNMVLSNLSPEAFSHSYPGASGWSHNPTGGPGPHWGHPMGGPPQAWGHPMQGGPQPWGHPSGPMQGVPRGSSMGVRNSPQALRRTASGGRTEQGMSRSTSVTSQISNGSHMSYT

[4] = biological target: T2, Mitogen-activated protein kinase kinase kinase kinase 2 (Homo sapiens, UniProt Q12851);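 note: measured as one member of a kinome-wide kinase panel, with MAP4K2 as the panel entry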
T2 sequence (Q12851 whole entry): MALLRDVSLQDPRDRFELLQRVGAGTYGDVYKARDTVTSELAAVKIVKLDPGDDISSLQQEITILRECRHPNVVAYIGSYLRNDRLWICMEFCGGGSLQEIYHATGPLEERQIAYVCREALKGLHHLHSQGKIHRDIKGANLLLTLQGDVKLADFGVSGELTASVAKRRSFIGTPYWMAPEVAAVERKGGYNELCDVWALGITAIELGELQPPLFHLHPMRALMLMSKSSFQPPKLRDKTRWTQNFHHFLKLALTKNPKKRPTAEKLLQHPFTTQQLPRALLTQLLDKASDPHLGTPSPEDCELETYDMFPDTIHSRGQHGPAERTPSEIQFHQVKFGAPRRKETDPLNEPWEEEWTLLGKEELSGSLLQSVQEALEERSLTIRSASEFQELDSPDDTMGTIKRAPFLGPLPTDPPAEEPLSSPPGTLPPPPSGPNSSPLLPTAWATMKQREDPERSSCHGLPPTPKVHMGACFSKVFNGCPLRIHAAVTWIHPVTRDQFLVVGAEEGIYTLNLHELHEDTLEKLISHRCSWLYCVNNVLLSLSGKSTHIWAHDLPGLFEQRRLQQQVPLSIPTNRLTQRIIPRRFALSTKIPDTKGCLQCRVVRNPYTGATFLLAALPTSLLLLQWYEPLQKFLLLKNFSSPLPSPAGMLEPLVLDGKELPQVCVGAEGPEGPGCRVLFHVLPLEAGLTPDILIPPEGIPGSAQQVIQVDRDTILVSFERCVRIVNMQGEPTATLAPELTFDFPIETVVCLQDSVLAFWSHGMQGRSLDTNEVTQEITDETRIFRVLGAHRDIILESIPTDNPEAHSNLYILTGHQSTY

[5] = biological target: T3, Serine/threonine-protein kinase Chk1 (Homo sapiens, UniProt O14757);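 note: measured as one member of a kinome-wide kinase profiling panel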
T3 sequence (O14757 whole entry): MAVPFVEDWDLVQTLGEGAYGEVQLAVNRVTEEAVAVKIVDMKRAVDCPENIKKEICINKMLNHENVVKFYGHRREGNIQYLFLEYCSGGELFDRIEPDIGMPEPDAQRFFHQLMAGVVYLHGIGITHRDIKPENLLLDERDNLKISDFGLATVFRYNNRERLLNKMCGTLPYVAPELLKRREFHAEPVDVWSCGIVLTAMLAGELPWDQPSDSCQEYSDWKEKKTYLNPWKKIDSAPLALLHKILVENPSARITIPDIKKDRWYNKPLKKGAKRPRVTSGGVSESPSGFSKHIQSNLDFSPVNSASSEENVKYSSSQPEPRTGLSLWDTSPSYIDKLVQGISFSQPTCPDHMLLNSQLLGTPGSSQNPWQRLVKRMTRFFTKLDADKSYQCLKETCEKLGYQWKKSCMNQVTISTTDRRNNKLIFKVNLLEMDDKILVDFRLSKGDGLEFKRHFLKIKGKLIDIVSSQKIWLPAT

[6] = biological target: Cyclin-dependent kinase 7 (Homo sapiens, UniProt P50613);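 note: value comes from a kinome-wide kinase profiling panel in which CDK7 is one member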
Sequence of Cyclin-dependent kinase 7 (P50613 whole entry): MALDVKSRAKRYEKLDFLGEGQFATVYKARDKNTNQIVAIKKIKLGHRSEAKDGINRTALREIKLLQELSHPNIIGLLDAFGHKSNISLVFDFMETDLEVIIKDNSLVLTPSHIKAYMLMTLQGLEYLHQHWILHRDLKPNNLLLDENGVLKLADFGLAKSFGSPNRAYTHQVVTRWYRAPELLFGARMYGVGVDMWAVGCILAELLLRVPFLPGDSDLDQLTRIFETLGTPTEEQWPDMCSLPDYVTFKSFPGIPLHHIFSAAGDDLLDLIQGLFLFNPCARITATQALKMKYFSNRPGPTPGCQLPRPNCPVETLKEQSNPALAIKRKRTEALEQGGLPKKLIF

[7] = biological target: Glycogen synthase kinase-3 beta (Homo sapiens, UniProt P49841);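 note: value comes from a broad kinome profiling panel, with GSK3B as the panel member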
Sequence of Glycogen synthase kinase-3 beta (P49841 whole entry): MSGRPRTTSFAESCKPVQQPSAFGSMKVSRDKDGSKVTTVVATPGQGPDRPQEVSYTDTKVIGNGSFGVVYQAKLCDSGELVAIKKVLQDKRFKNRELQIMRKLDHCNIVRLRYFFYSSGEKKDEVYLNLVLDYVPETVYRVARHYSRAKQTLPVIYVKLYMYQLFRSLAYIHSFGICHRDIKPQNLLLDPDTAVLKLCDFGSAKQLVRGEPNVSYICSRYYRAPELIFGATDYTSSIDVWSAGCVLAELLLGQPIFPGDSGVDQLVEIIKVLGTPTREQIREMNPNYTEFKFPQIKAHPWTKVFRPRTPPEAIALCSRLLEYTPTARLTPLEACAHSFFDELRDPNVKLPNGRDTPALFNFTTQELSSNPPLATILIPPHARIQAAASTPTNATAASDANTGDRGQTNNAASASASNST

Measured: Ki

Sequence of 5'-AMP-activated protein kinase catalytic subunit alpha-1 (Q13131 whole entry): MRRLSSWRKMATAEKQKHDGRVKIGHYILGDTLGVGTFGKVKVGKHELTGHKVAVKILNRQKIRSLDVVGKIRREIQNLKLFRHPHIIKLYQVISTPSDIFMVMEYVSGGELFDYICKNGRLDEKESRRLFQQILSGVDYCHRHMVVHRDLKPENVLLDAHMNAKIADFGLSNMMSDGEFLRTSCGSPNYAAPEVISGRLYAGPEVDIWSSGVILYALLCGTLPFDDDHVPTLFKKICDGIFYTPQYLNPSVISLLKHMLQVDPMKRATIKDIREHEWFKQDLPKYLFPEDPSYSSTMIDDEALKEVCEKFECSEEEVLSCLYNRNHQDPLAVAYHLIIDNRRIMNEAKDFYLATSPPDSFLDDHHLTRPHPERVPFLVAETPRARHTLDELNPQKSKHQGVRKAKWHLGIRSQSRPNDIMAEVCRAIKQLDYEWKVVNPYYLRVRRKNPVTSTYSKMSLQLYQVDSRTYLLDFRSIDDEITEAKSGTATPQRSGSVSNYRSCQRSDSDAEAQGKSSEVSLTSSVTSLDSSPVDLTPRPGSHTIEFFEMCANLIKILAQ
Sequence of Serine/threonine-protein kinase pim-1 (P11309 whole entry): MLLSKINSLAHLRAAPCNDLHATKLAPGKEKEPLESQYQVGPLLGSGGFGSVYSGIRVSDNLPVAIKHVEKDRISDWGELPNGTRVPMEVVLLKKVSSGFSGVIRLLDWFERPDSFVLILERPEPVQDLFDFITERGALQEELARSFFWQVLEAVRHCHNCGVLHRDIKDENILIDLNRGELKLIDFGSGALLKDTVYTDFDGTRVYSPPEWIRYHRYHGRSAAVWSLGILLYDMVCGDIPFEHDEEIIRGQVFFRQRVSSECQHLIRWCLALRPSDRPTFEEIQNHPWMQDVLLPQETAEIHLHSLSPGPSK

NC1CCC(Nc2nccc(-c3c[nH]c4ncccc34)n2)CC1 (stereo unspecified)
active: [1] 0.126 µM | [2] 0.251 µM | [3] 0.316 µM | [4] 0.0501 µM | [5] 2 µM | [6] 0.00398 µM | [7] 0.2 µM

OCc1cc(-c2ccc3[nH]ncc3c2)on1
active: [1] 31.6 µM | [2] 15.8 µM | [3] 79.4 µM | [4] 39.8 µM | [5] 39.8 µM | [6] 12.6 µM | [7] 3.16 µM

CC(C)(O)c1cn(-c2ccc3[nH]ncc3c2)nn1
active: [1] 6.31 µM | [2] 50.1 µM | [3] 79.4 µM | [4] 50.1 µM | [5] 63.1 µM | [6] 10 µM | [7] 12.6 µM
